The text below walks through data of patent US11634447B2 (priority 2012, dated 2023).

SMILES strings stand for the structures.

The target of the first experiment is bacterial strain LF82 binding to the glycoprotein BSA-(Mannose)3. Kind of experiment: Bacterial Binding Assay (BBA). The format is cell-based, Escherichia coli. As to conditions: LF82/Luciferase strain binding to BSA-(Man)3 coated plates, luminescence; read-out: Bacterial Binding Assay IC50. Put shortly:
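Inhibition of LF82/luciferase E. coli adhesion is read as luminescence after washing off unbound cells. Compound and bacteria (10^7 per well) are co-incubated 40-75 min at room temperature on wells coated with 0.5-2 μg/mL BSA-(Man)3, with BSA-only wells as background; IC50 values derived.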
Regarding `OC[C@H]1O[C@H](C#Cc2ccc3c(c2)C2(CC(O)C(O)CO2)c2cc(C#C[C@H]4O[C@H](CO)[C@@H](O)[C@H](O)[C@@H]4O)ccc2-3)[C@@H](O)[C@@H](O)[C@@H]1O` (stereo partly drawn) [Compound 197], the IC50 was found to be 0.83 nM.

Staying with this experiment, now noted: read-out: Bacterial Binding Assay IC50, LF82/Luciferase strain binding to BSA-(Man)3 coated plates, luminescence.
As to `COc1cc(C#C[C@H]2O[C@H](CO)[C@@H](O)[C@H](O)[C@@H]2O)ccc1C#C[C@H]1O[C@H](CO)[C@@H](O)[C@H](O)[C@@H]1O` [Compound 71], the IC50 stood at 28 nM.
For `CC1(O)CCC2(CC1)c1cc(C#C[C@H]3O[C@H](CO)[C@@H](O)[C@H](O)[C@@H]3O)ccc1-c1ccc(C#C[C@H]3O[C@H](CO)[C@@H](O)[C@H](O)[C@@H]3O)cc12` [Compound 204], the IC50 came out at 0.8 nM.
For `O=C1c2cc(C#C[C@H]3O[C@H](CO)[C@@H](O)[C@H](O)[C@@H]3O)ccc2-c2ccc(C#C[C@H]3O[C@H](CO)[C@@H](O)[C@H](O)[C@@H]3O)cc21` [Compound 119, 2,7-bis[2-[(2R,3S,4R,5S,6R)-3,4,5-trihydroxy-6-(hydroxymethyl)tetrahydropyran-2-yl]ethynyl]fluoren-9-one], the IC50 worked out at 14 nM.
Still for that read-out and setting: as for `COc1cc([C@H]2O[C@H](CO)[C@@H](O)[C@H](O)[C@@H]2O)ccc1-c1ccc([C@H]2O[C@H](CO)[C@@H](O)[C@H](O)[C@@H]2O)cc1` [Compound 67], the figure is 40 nM; as for `CC(C)c1cc(C#C[C@H]2O[C@H](CO)[C@@H](O)[C@H](O)[C@@H]2O)ccc1C#C[C@H]1O[C@H](CO)[C@@H](O)[C@H](O)[C@@H]1O` [Compound 103, (2R,3S,4R,5S,6R)-2-(hydroxymethyl)-6-[2-[3-isopropyl-4-[2-[(2R,3S,4R,5S,6R)-3,4,5-trihydroxy-6-(hydroxymethyl)tetrahydropyran-2-yl]ethynyl]phenyl]ethynyl]tetrahydropyran-3,4,5-triol], 7.4 nM; as for `OCC(O)Cn1c2ccc(C#C[C@H]3O[C@H](CO)[C@@H](O)[C@H](O)[C@@H]3O)cc2c2cc(C#C[C@H]3O[C@H](CO)[C@@H](O)[C@H](O)[C@@H]3O)ccc21` (stereo partly drawn) [Compound 174, (2R,3S,4R,5S,6R)-2-[2-[9-(2,3-dihydroxypropyl)-6-[2-[(2R,3S,4R,5S,6R)-3,4,5-trihydroxy-6-(hydroxymethyl)tetrahydropyran-2-yl]ethynyl]carbazol-3-yl]ethynyl]-6-(hydroxymethyl)tetrahydropyran-3,4,5-triol], 4.7 nM.
For `CCCCCC1(O)c2cc(C#C[C@H]3O[C@H](CO)[C@@H](O)[C@H](O)[C@@H]3O)ccc2-c2ccc(C#C[C@H]3O[C@H](CO)[C@@H](O)[C@H](O)[C@@H]3O)cc21` [Compound 113, (2R,3S,4R,5S,6R)-2-(hydroxymethyl)-6-[2-[9-hydroxy-9-pentyl-7-[2-[(2R,3S,4R,5S,6R)-3,4,5-trihydroxy-6-(hydroxymethyl)tetrahydropyran-2-yl]ethynyl]fluoren-2-yl]ethynyl]tetrahydropyran-3,4,5-triol], the IC50 came out at 5.5 nM.
Turning to `CCOC(=O)Cn1c2cc(C#C[C@H]3O[C@H](CO)[C@@H](O)[C@H](O)[C@@H]3O)ccc2c2ccc(C#C[C@H]3O[C@H](CO)[C@@H](O)[C@H](O)[C@@H]3O)cc21` [Compound 175, ethyl 2-[2,7-bis[2-[(2R,3S,4R,5S,6R)-3,4,5-trihydroxy-6-(hydroxymethyl)tetrahydropyran-2-yl]ethynyl]carbazol-9-yl]acetate], the IC50 stood at 6.5 nM.
Still for that read-out and setting: as for `CCc1cc(C#C[C@H]2O[C@H](CO)[C@@H](O)[C@H](O)[C@@H]2O)cc(CC)c1C#C[C@H]1O[C@H](CO)[C@@H](O)[C@H](O)[C@@H]1O` [Compound 73], the figure is 21 nM; as for `OC[C@H]1O[C@H](C#Cc2cc(F)c(C#C[C@H]3O[C@H](CO)[C@@H](O)[C@H](O)[C@@H]3O)c(F)c2)[C@@H](O)[C@@H](O)[C@@H]1O` [Compound 93, (2R,3S,4R,5S,6R)-2-[2-[3,5-difluoro-4-[2-[(2R,3S,4R,5S,6R)-3,4,5-trihydroxy-6-(hydroxymethyl)tetrahydropyran-2-yl]ethynyl]phenyl]ethynyl]-6-(hydroxymethyl)tetrahydropyran-3,4,5-triol], 88 nM; as for `Cc1cc(C#C[C@H]2O[C@H](CO)[C@@H](O)[C@H](O)[C@@H]2O)ccc1[C@H]1O[C@H](CO)[C@@H](O)[C@H](O)[C@@H]1O` [Compound 142], 91 nM.
With `CC(=O)OCC1(COC(C)=O)c2cc(C#C[C@H]3O[C@H](CO)[C@@H](O)[C@H](O)[C@@H]3O)ccc2-c2ccc(C#C[C@H]3O[C@H](CO)[C@@H](O)[C@H](O)[C@@H]3O)cc21` [Compound 211, [9-(acetoxymethyl)-2,7-bis[2-[(2R,3S,4R,5S,6R)-3,4,5-trihydroxy-6-(hydroxymethyl)tetrahydropyran-2-yl]ethynyl]fluoren-9-yl]methyl acetate], the IC50 came out at 2.2 nM.
With `OC[C@H]1O[C@H](C#Cc2ccc(C#C[C@H]3O[C@H](CO)[C@@H](O)[C@H](O)[C@@H]3O)c3nsnc23)[C@@H](O)[C@@H](O)[C@@H]1O` [Compound 131, (2R,3S,4R,5S,6R)-2-(hydroxymethyl)-6-[2-[4-[2-[(2R,3S,4R,5S,6R)-3,4,5-trihydroxy-6-(hydroxymethyl)tetrahydropyran-2-yl]ethynyl]-2,1,3-benzothiadiazol-7-yl]ethynyl]tetrahydropyran-3,4,5-triol], the IC50 is 128 nM.
As to `O=C(c1c(C#C[C@H]2O[C@H](CO)[C@@H](O)[C@H](O)[C@@H]2O)ccc2c1C1(CCNCC1)c1cc(C#C[C@H]3O[C@H](CO)[C@@H](O)[C@H](O)[C@@H]3O)ccc1-2)C1(O)CC1` [Compound 227, [2,7-bis[2-[(2R,3S,4R,5S,6R)-3,4,5-trihydroxy-6-(hydroxymethyl)tetrahydropyran-2-yl]ethynyl]spiro[fluorene-9,4piperidine]-1yl]-(1hydroxycyclopropyl)methanone], the IC50 is 0.06 nM.
Same read-out and setting: as for `Cc1cc(C2CC2c2ccc([C@H]3O[C@H](CO)[C@@H](O)[C@H](O)[C@@H]3O)cc2)ccc1[C@H]1O[C@H](CO)[C@@H](O)[C@H](O)[C@@H]1O` (stereo partly drawn) [Compound 156], the figure is 18 nM; as for `Cn1nccc1C(=O)c1c(C#C[C@H]2O[C@H](CO)[C@@H](O)[C@H](O)[C@@H]2O)ccc2c1C1(CCNCC1)c1cc(C#C[C@H]3O[C@H](CO)[C@@H](O)[C@H](O)[C@@H]3O)ccc1-2` [Compound 237, [2,7-bis[2-[(2R,3S,4R,5S,6R)-3,4,5-trihydroxy-6-(hydroxymethyl)tetrahydropyran-2-yl]ethynyl]spiro[fluorene-9,4piperidine]-1yl]-(2-methylpyrazol-3-yl)methanone], 0.22 nM.
Consider `CC(C)(C)C(=O)N1CCC2(CC1)c1cc(C#C[C@H]3O[C@H](CO)[C@@H](O)[C@H](O)[C@@H]3O)ccc1-c1ccc(C#C[C@H]3O[C@H](CO)[C@@H](O)[C@H](O)[C@@H]3O)cc12` [Compound 228, 1-[2,7-bis[2-[(2R,3S,4R,5S,6R)-3,4,5-trihydroxy-6-(hydroxymethyl)tetrahydropyran-2-yl]ethynyl]spiro[fluorene-9,4piperidine]-1yl]-2,2-dimethyl-propan-l-one], for which the IC50 was determined as 0.44 nM.
For the compound `Cc1cc(C#C[C@H]2O[C@H](CO)[C@@H](O)[C@H](O)[C@@H]2O)cc(C)c1C#C[C@H]1O[C@H](CO)[C@@H](O)[C@H](O)[C@@H]1O` [Compound 100, (2R,3S,4R,5S,6R)-2-[2-[3,5-dimethyl-4-[2-[(2R,3S,4R,5S,6R)-3,4,5-trihydroxy-6-(hydroxymethyl)tetrahydropyran-2-yl]ethynyl]phenyl]ethynyl]-6-(hydroxymethyl)tetrahydropyran-3,4,5-triol], the IC50 was 28 nM.
Take `O=C(Cn1c2cc(C#C[C@H]3O[C@H](CO)[C@@H](O)[C@H](O)[C@@H]3O)ccc2c2ccc(C#C[C@H]3O[C@H](CO)[C@@H](O)[C@H](O)[C@@H]3O)cc21)NCCN1CCOCC1` [Compound 178, 2-[2,7-bis[2-[(2R,3S,4R,5S,6R)-3,4,5-trihydroxy-6-(hydroxymethyl)tetrahydropyran-2-yl]ethynyl]carbazol-9-yl]-N-(2-morpholinoethyl)acetamide]: the IC50 amounted to 3.1 nM.
On to `Cc1cc(-c2ccc(C#C[C@H]3O[C@H](CO)[C@@H](O)[C@H](O)[C@@H]3O)c(C)c2)ccc1C#C[C@H]1O[C@H](CO)[C@@H](O)[C@H](O)[C@@H]1O` [Compound 121, (2R,3S,4R,5S,6R)-2-(hydroxymethyl)-6-[2-[2-methyl-4-[3-methyl-4-[2-[(2R,3S,4R,5S,6R)-3,4,5-trihydroxy-6-(hydroxymethyl)tetrahydropyran-2-yl]ethynyl]phenyl]phenyl]ethynyl]tetrahydropyran-3,4,5-triol], for which the IC50 worked out at 12 nM.
`OC[C@H]1O[C@H](C#Cc2ccc3c(c2)C(=NO)c2cc(C#C[C@H]4O[C@H](CO)[C@@H](O)[C@H](O)[C@@H]4O)ccc2-3)[C@@H](O)[C@@H](O)[C@@H]1O` [Compound 163, 2,7-bis[2-[(2R,3S,4R,5S,6R)-3,4,5-trihydroxy-6-(hydroxymethyl)tetrahydropyran-2-yl]ethynyl]fluoren-9-one oxime]: the IC50 came out at 18 nM.
For `O=C(c1c(C#C[C@H]2O[C@H](CO)[C@@H](O)[C@H](O)[C@@H]2O)ccc2c1C1(CCNCC1)c1cc(C#C[C@H]3O[C@H](CO)[C@@H](O)[C@H](O)[C@@H]3O)ccc1-2)C1CC1(F)F` (stereo partly drawn) [Compound 235, [2,7-bis[2-[(2R,3S,4R,5S,6R)-3,4,5-trihydroxy-6-(hydroxymethyl)tetrahydropyran-2-yl]ethynyl]spiro[fluorene-9,4piperidine]-1yl]-(2,2-difluorocyclopropyl)methanone], the IC50 is 0.03 nM.
On the same count and under the same terms, the same measure for `OC[C@H]1O[C@H](C#Cc2ccc3nc(C#C[C@H]4O[C@H](CO)[C@@H](O)[C@H](O)[C@@H]4O)ccc3c2)[C@@H](O)[C@@H](O)[C@@H]1O` [Compound 126, (2R,3S,4R,5S,6R)-2-(hydroxymethyl)-6-[2-[2-[2-[(2R,3S,4R,5S,6R)-3,4,5-trihydroxy-6-(hydroxymethyl)tetrahydropyran-2-yl]ethynyl]-6-quinolyl]ethynyl]tetrahydropyran-3,4,5-triol]: 124 nM.
